How the values were obtained:
[1] = cited from earlier work
[2] = Stability of additive with paclitaxel under ethylene oxide sterilization, heating and aging; assay type: physicochemical; conditions: additive formulated with paclitaxel; reacted with paclitaxel
[3] = target: albumin (Homo sapiens, UniProt P02768); conditions: cited from earlier work
Chain of albumin (P02768 25-609): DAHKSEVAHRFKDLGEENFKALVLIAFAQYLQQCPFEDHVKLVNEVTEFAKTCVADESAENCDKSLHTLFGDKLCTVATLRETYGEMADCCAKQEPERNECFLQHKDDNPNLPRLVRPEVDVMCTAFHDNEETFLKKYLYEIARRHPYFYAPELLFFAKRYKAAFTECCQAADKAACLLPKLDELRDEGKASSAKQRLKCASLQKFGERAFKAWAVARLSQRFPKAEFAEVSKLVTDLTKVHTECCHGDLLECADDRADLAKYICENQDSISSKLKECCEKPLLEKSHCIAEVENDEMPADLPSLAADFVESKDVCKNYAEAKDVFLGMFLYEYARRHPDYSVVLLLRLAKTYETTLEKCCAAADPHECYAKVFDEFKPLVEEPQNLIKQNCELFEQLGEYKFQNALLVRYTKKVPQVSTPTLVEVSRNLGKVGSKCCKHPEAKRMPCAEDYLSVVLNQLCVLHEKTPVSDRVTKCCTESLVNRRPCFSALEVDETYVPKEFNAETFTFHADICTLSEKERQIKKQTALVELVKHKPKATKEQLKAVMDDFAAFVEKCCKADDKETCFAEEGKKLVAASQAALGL

Molecule	stability under ethylene oxide sterilization, heating, and aging process [2]	other results
PEG-20 sorbitan monolaurate [Tween 20]		log P [1]: about 3.0
O=C(O)c1ccccc1 [benzoic acid]	not stable	
O=C1O[C@H]([C@@H](O)CO)C(O)=C1O [ascorbic acid]	not stable	
OCCNCCO [diethanolamine]	not stable	
O=C(O)c1cc(O)ccc1O [gentisic acid]	not stable	
CO[C@H]1C[C@@H]2CC[C@@H](C)[C@@](O)(O2)C(=O)C(=O)N2CCCC[C@H]2C(=O)O[C@H]([C@H](C)C[C@@H]2CC[C@@H](O)[C@H](OC)C2)CC(=O)[C@H](C)/C=C(\C)[C@@H](O)[C@@H](OC)C(=O)[C@H](C)C[C@H](C)/C=C/C=C/C=C/1C [rapamycin]		protein bound [3]: 92%
COc1ccc(O)c(C(C)(C)C)c1 [Butylated hydroxyanisole (BHA), Butylated hydroxyanisole]		log P [1]: 1.31

Reference: US10835719B2, “Drug releasing coatings for medical devices” (Lutonix, Inc., priority 2006, dated 2020)
